# From patent US20180135134A1, “TARGETED SELECTION OF PATIENTS FOR TREATMENT WITH CORTISTATIN DERIVATIVES” (President and Fellows of Harvard College, priority 2015, published 2018)
# How the values were obtained:
# MEG-01 = assay: Cellular proliferation assay (CellTiter-Glo); conditions: Homo sapiens
# Procedure: (§1) All suspension cells were plated (96-well) in triplicate at 5,000-30,000 cells per well for testing (n=3). Viable cell number was estimated after 3, 7 and 10 days by counting viable cells from one vehicle well, generating a cell dilution series, transferring 20 ml per well in duplicate to a 384-well plate, and performing a linear regression to CellTiter-Glo (Promega) response (SPECTRAmax M3, Molecular Devices). Cells from all wells were also fourfold diluted in media and transferred in duplicate for CellTiter-Glo measurement. On days 3 and 7, an equal volume for all wells was split-back with fresh media and compound, such that the resulting cell density for the vehicle well matched the initial seeding density. For days 7 and 10, estimated cell number represents the split-adjusted theoretical cell number. […] For growth assays with inhibitors, n=3 for each concentration with two independent experiments.
# CDK8/Cyclin C = target: T1, CDK8/Cyclin C (Homo sapiens, UniProt P49336); assay: In vitro radiometric protein kinase assay (PanQinase); type: biochemical; conditions: FIG. 8
# T1 construct: purchased ProQinase GmbH
# T1 sequence (P49336 whole entry): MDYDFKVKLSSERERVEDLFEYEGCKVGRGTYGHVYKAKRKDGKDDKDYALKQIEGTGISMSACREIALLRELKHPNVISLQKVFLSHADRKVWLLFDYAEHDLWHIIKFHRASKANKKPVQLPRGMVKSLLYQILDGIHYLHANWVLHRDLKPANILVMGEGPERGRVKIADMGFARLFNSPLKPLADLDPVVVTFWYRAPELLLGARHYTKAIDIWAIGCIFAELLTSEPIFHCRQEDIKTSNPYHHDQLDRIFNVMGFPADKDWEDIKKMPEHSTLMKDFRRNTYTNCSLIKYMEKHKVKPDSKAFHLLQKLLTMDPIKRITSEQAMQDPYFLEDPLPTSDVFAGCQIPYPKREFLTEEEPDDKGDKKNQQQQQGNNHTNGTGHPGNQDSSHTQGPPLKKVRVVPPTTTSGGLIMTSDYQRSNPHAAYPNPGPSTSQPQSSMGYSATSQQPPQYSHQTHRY
# T1 sequence (P24863 whole entry partner): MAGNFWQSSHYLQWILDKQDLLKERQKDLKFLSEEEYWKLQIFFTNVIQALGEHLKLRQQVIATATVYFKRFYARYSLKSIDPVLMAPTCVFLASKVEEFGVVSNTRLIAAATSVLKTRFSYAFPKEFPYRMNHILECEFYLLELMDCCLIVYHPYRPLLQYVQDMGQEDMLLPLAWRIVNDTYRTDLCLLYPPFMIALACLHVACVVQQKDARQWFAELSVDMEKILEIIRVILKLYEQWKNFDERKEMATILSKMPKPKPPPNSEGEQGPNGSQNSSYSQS
# Excerpt: A radiometric protein kinase assay was used (PanQinase activity assay; performed by ProQinase GmbH) as described (Hutterer, C. et al. Antimicrob. Agents Chemother. 59, 2062-2071 (2015)).
# UKE-1 = assay: Cellular proliferation assay (CellTiter-Glo); conditions: Homo sapiens, UKE1
# Procedure: as §1
# HCC827 = assay: Soft agar growth assay (Alamar Blue); conditions: Non small cell lung carcinoma, EGFR mutation, 100 nM cortistatin A
# Procedure: (§2) For the 62 cell lines 96 well suspension cell culture plates were prepared. 100 μL of the soft agar bottom layer (0.6% final concentration in complete medium) was poured and left to solidify. 50 μL of the soft agar top layer (0.4% final concentration) containing the corresponding cells and cell number were then added on top, solidified and incubated at 37° C., 10% CO2. After the soft agar had solidified, the test items were added at indicated final concentrations into the inner wells of the plate. Subsequently, the assay was incubated in cell culture incubators for 8 to 14 days. Finally, the assay was developed using Alamar Blue and upon 1-5 h of incubation at 37° C. fluorescence intensity was determined (excitation: 560 nm; emission: 590 nm). As low control, cells were treated with 1E-05M Staurosporine (6fold values). As high control, cells were treated with 0.1% DMSO (solvent control, 6 fold values).
# (§3) Raw data were converted into percent soft agar growth relative to high controls (solvent 0.1% DMSO) and low controls (1E-05M Staurosporine), which were set to 100% and 0%, respectively.
# NCI-N87 = assay: Soft agar growth assay (Alamar Blue); conditions: Gastric cancer, HER2 overexpression, 100 nM cortistatin A
# Procedure: as §2, §3
# CMK-86 = assay: Cellular proliferation assay (CellTiter-Glo); conditions: Homo sapiens
# Procedure: as §1
# HCT116 = assay: Cellular proliferation assay (CellTiter-Blue, day 7); conditions: Homo sapiens, HCT-116
# Procedure: (§4) All suspension cells were plated (96-well) in triplicate at 5,000-30,000 cells per well for testing (n=3). Viable cell number was estimated after 3, 7 and 10 days by counting viable cells from one vehicle well, generating a cell dilution series, transferring 20 ml per well in duplicate to a 384-well plate, and performing a linear regression to CellTiter-Glo (Promega) response (SPECTRAmax M3, Molecular Devices). Cells from all wells were also fourfold diluted in media and transferred in duplicate for CellTiter-Glo measurement. On days 3 and 7, an equal volume for all wells was split-back with fresh media and compound, such that the resulting cell density for the vehicle well matched the initial seeding density. For days 7 and 10, estimated cell number represents the split-adjusted theoretical cell number. HCT116 were plated (96-well) in triplicate at 250 cells per well. Cells were incubated in the presence of vehicle, 1 μM paclitaxel, or compound. On day 7, CellTiter-Blue (Promega) response was measured and values were normalized to vehicle (100% growth) and paclitaxel (0% growth). For growth assays with inhibitors, n=3 for each concentration with two independent experiments.
# U87MG = assay: Soft agar growth assay (Alamar Blue); conditions: Glioma, Inactivating mutations in ETV1, FLL1 and SMC3, 100 nM cortistatin A
# Procedure: as §2, §3
# MCF-7 = assay: Soft agar growth assay (Alamar Blue); conditions: Breast cancer, ER-alpha positive, 100 nM cortistatin A
# Procedure: as §2, §3
# [1] = test system: megakaryocytic cell lines; assay: Cellular proliferation assay, megakaryocytic cell lines; conditions: Homo sapiens
# Procedure: as §1
# Kasumi-1 = assay: Cellular proliferation assay (CellTiter-Glo); conditions: Homo sapiens
# Procedure: as §1
# OCI-LY1 = assay: Cellular proliferation assay (CellTiter-Glo); conditions: Homo sapiens
# Procedure: as §1
# Jurkat = assay: Cellular proliferation assay (CellTiter-Glo); conditions: Homo sapiens
# Procedure: as §1
# REH = assay: Cellular proliferation assay (CellTiter-Glo); conditions: Homo sapiens
# Procedure: as §1
# MKN-45 = assay: Soft agar growth assay (Alamar Blue); conditions: Gastric cancer, MET amplification, 100 nM cortistatin A
# Procedure: as §2, §3
# ME-1 = assay: Cellular proliferation assay (CellTiter-Glo); conditions: Homo sapiens, ME-1, 240 h
# Procedure: as §1
# K562 = assay: Cellular proliferation assay (CellTiter-Glo); conditions: Homo sapiens
# Procedure: as §1
# CDK8/19 = target: T2, CDK8/19 (Homo sapiens, UniProt P49336); assay: Recombinant kinome-wide selectivity profiling (wildtype-profiler, ProQinase), 294 recombinant kinases; type: biochemical; conditions: 600 nM cortistatin A; FIG. 7A
# T2 construct: purchased ProQinase GmbH
# T2 sequence (P49336 whole entry): as the sequence (P49336 whole entry) above
# T2 sequence (P24863 whole entry partner): as the sequence (P24863 whole entry partner) above
# Excerpt: Recombinant kinome-wide selectivity profiling.
# T47D = assay: Soft agar growth assay (Alamar Blue); conditions: Breast cancer, ER-alpha positive, 100 nM cortistatin A
# Procedure: as §2, §3
# [2] = test system: disseminated MV4;11-mCLP leukemia; assay: MV4;11 xenograft model in NSG mice; type: in vivo, mouse
# Procedure: The MV4;11 xenograft model was performed as previously described (Etchin, J. et al. Antileukemic activity of nuclear export inhibitors that spare normal hematopoietic cells. Leukemia 27, 66-74 (2013)). Two-million MV4; 11-mCLP cells were injected into the tail vein of 7-week-old female non-obese diabetic-severe combined immuno-deficient (NOD-SCID)Il2rg^−/− (NSG) mice (The Jackson Laboratory) and tumour burden was assessed by bioluminescence imaging (BLI) using an IVIS Spectrum system (Caliper Life Sciences). […] After 30 days, blood counts were obtained (Hemavet 950 F, Drew Scientific) and spleen, femur and peripheral blood cells were collected and analysed by flow cytometry (LSR Fortessa, BD Biosciences) from three mice per group, having the highest, lowest and median BLI value. […] Survival was measured as the time from therapy initiation until moribund state. […]
# The MV4;11 xenograft model was performed as previously described (Etchin, J. et al. Antileukemic activity of nuclear export inhibitors that spare normal hematopoietic cells. Leukemia 27, 66-74 (2013)). Two-million MV4;11-mCLP cells were injected into the tail vein of 7-week-old female non-obese diabetic-severe combined immuno-deficient (NOD-SCID)Il2rg-^−/− (NSG) mice (The Jackson Laboratory) and tumour burden was assessed by bioluminescence imaging (BLI) using an IVIS Spectrum system (Caliper Life Sciences). […]
# MOLM-14 = assay: Cellular proliferation assay (CellTiter-Glo); conditions: Homo sapiens
# Procedure: as §1
# TF-1 = assay: Cellular proliferation assay (CellTiter-Glo); conditions: Homo sapiens
# Procedure: as §4
compound,measurement,setting,value
"CN(C)[C@H]1C[C@@]23CC[C@@]4(O2)C(=CC[C@]2(C)[C@@H](c5ccc6ccncc6c5)CC[C@H]24)C=C3[C@@H](O)[C@@H]1O [Cortistatin A, cortistatin A]",GI50,MEG-01; MEG-01,9 nM
same,GI50,"MEG-01; MEG-01, 240 h",9 nM
same,inhibition of CDK8/Cyclin C kinase activity,CDK8/Cyclin C,potently inhibits CDK8/Cyclin C
same,GI50,UKE-1,7 nM
same,% growth rel. to vehicle,HCC827,23%
same,% growth rel. to vehicle,NCI-N87,26%
same,GI50,CMK-86; CMK-86,8 nM
same,GI50,"CMK-86; CMK-86, 240 h",8 nM
same,GI50,HCT116,> 1000 nM
same,% growth rel. to vehicle,U87MG,36%
same,% growth rel. to vehicle,MCF-7,49%
same,GI50,[1],< 10 nM
same,GI50,Kasumi-1,95 nM
same,GI50,OCI-LY1,37 nM
same,GI50,Jurkat,155 nM
same,GI50,REH,1 nM
same,% growth rel. to vehicle,MKN-45,27%
same,GI50,ME-1,1 nM
same,GI50,K562; K562,> 1000 nM
same,GI50,"K562; K562, 240 h",> 1000 nM
same,"kinase selectivity (kinase activity percent remaining, 294 recombinant kinases)",CDK8/19,selectively inhibits CDK8/19
same,% growth rel. to vehicle,T47D,48%
same,leukemia cells in the lungs (haematoxylin and eosin staining),"[2]; MV4;11 AML mice, Day 30, FIG. 10",fewer leukemia cells in the lungs
same,spleen weight,"[2]; female NSG mice, once daily IP for 15 days, measured 37 days after injection of cells, FIG. 6",prevents spleen weight increase
same,GI50,MOLM-14; MOLM-14,5 nM
same,GI50,"MOLM-14; MOLM-14, 240 h",5 nM
same,GI50,TF-1,350 nM
